Reference: article PMC7767178 (International Journal of Molecular Sciences, 2020)
In brackets after ≈: the same amount, converted by molar mass. Like-named read-outs stand apart in the source and are kept apart here.

Key:
[1] = system: A. veronii ACCC61732; test: Post-antibiotic effect (PAE); assay type: cell-based; settings: for PAE: 2 h exposure, 1000-fold dilution, 37 °C, triplicate
Protocol: The samples were taken from flasks for counting each hour until bacterial cultures became turbid. The untreated bacteria severed as controls. The PAE was calculated using the following equation: PAE = T − C, where T is the time (h) required for the CFU in the test culture to increase by 10-fold from the count immediately after the drug removal and C is the corresponding time (h) for the control. The experiment was performed in triplicate.

[2] = system: Escherichia coli CVCC195; test: microbe, parasite or virus in culture; assay type: cell-based; settings: Escherichia coli CVCC195; broth dilution, 37 °C, 16–18 h, three experiments
Source text: (§1) All experiments were repeated three times.

[3] = system: E. coli CVCC1515; test: microbe, parasite or virus in culture; assay type: cell-based
Source text: as §1

[4] = system: E. coli CVCC25922; test: microbe, parasite or virus in culture; assay type: cell-based; settings: E. coli CVCC25922; broth dilution, 37 °C, 16–18 h, three experiments
Source text: as §1

[5] = system: Staphylococcus aureus ATCC43300; test: microbe, parasite or virus in culture; assay type: cell-based
Source text: as §1

[6] = system: S. pullorum CVCC533; test: microbe, parasite or virus in culture; assay type: cell-based
Source text: as §1

[7] = system: S. pullorum CVCC1809; test: microbe, parasite or virus in culture; assay type: cell-based; settings: S. pullorum CVCC1809; broth dilution, 37 °C, 16–18 h, three experiments
Source text: as §1

[8] = system: S. enteritidis CVCC3377; test: microbe, parasite or virus in culture; assay type: cell-based
Source text: as §1

[9] = system: A. veronii X-1-06909; test: microbe, parasite or virus in culture; assay type: cell-based
Source text: as §1

[10] = system: S. pullorum CVCC1789; test: microbe, parasite or virus in culture; assay type: cell-based
Source text: as §1

[11] = system: Candida albicans CMCC98001; test: microbe, parasite or virus in culture; assay type: cell-based; settings: CMCC98001; read-out: MIC
Source text: as §1

[12] = system: A. veronii ACCC61732; test: Time-killing curves; assay type: cell-based; settings: 2× MIC; 1 × 10^5 CFU/mL, colony counting, 0–24 h
Protocol: Time-killing curves were performed as previously described. […] The sample of 100 μL was taken from each flask at 0, 0.5, 1, 2, 4, 6, 8, 10, 20, and 24 h, respectively, and serially diluted for colony counting. PBS and CIP were used as the negative and positive control, respectively.

[13] = system: E. coli CVCCO157; test: MIC, microtiter broth dilution; assay type: cell-based; settings: 37 °C, 16–18 h, three experiments
Source text: as §1

[14] = system: A. veronii ACCC61732; test: Resistance development, 30 serial passages; assay type: cell-based; settings: A. veronii ACCC61732, 30 passages (30 days)
Protocol: The development of bacterial resistance of peptides was performed by the MIC assays. […] GEN, CIP, and PMB were used as controls. […] The MIC values were measured as described above. The serial passaging was repeated for 30 days.

[15] = system: A. veronii CL0901
Protocol: (§2) Briefly, the tested strains including Gram-negative bacteria, Gram-positive bacteria, and fungi were cultured to the logarithmic growth phase, diluted to 10^5 CFU/mL, and added into 96-well plates (90 μL/well). Two-fold serial dilutions of peptides or antibiotics dissolved in PBS were added to each well (10 μL/well). […] All experiments were repeated three times.

[16] = system: S. hyicus NCTC10350
Protocol: as §2

[17] = system: A. veronii ACCC61732 in biofilm; assay type: cell-based; settings: 2 h
Protocol: The mid-log phase A. veronii ACCC61732 cells (1 × 10^8 CFU/mL) were inoculated into in the 96-well plates and cultured for 24 h at 37 °C. The plates were washed twice with PBS. […] PBS was used as the negative control. The plates were treated with ultrasound for 5 min and the viable bacteria were counted on the TSA plates.

[18] = system: A. veronii ACCC61732; test: microbe, parasite or virus in culture; assay type: cell-based
Source text: The checkerboard microtiter assay was used to determine the combinations of peptides with different antibiotics (including quinolone, rifamycin, peptide antibiotics, aminoglycoside, tetracycline, and chloramphenicol). […] The fractional inhibitory concentration (FIC) was used to calculate the combination effects using the following formula: FIC index (FICI) = MIC(peptide in combination)/MIC(peptide alone) + MIC(antibiotic in combination)/MIC(antibiotic alone). FICI ≤ 0.5 means synergistic, 0.5 < FICI ≤ 1 means additive action, 1 < FICI ≤ 4 means indifference, and FICI > 4 means antagonism.

CC(C)[C@@H]1NC(=O)CNC(=O)[C@H](CC(N)=O)NC(=O)[C@H](CCCNC(=N)N)NC(=O)[C@H](Cc2ccc(O)cc2)NC(=O)[C@H](C(C)C)NC(=O)[C@@H](NC(=O)[C@@H](NC(=O)[C@H](CC(N)=O)NC(=O)[C@H](Cc2c[nH]c3ccccc23)NC(=O)[C@H](C)NC(=O)[C@H](Cc2ccccc2)NC(=O)[C@H](CCCN)N=C(N(C)C)N(C)C)C(C)C)CSSC[C@@H](C(=O)N[C@@H](Cc2c[nH]cn2)C(=O)N[C@@H](CCCNC(=N)N)C(=O)N[C@@H](CCCNC(=N)N)C(=O)N[C@@H](C)C(=O)N[C@@H](CC(N)=O)C(N)=O)NC(=O)[C@H](C(C)C)NC(=O)[C@H](CCCNC(=N)N)NC1=O (stereo in doubt) [Guo-N6NH2]
PAE ([1]; 1× MIC): 0.62 ± 0.01 h
PAEs, range over 1×–4× MIC ([1]; 1× to 4× MIC): 0.62 to 2.07 h
PAE ([1]; 2× MIC): 1.32 ± 0.08 h
PAE ([1]; 4× MIC): 2.07 ± 0.08 h
MIC [2]: 4 µg/mL (≈ 1.52 µM)
MIC ([3]; CVCC1515, read-out: MIC): 0.76 µM
MIC ([3]; E. coli CVCC1515, broth dilution, 37 °C, 16–18 h, three experiments): 2 µg/mL
MIC [4]: 4 µg/mL (≈ 1.52 µM)
MIC ([5]; ATCC43300, read-out: MIC): 6.08 µM
MIC ([5]; Staphylococcus aureus ATCC43300, broth dilution, 37 °C, 16–18 h, three experiments): 16 µg/mL
MIC ([6]; CVCC533, read-out: MIC): 3.04 µM
MIC ([6]; S. pullorum CVCC533, broth dilution, 37 °C, 16–18 h, three experiments): 8 µg/mL
MIC [7]: 4 µg/mL (≈ 1.52 µM)
MIC ([8]; CVCC3377, read-out: MIC): 0.76 µM
MIC ([8]; S. enteritidis CVCC3377, broth dilution, 37 °C, 16–18 h, three experiments): 2 µg/mL
MIC ([9]; A. veronii X-1-06909, broth dilution, 37 °C, 16–18 h, three experiments): 16 µg/mL
MIC ([9]; read-out: MIC): 6.08 µM
MIC ([10]; CVCC1789, read-out: MIC): 3.04 µM
MIC ([10]; S. pullorum CVCC1789, broth dilution, 37 °C, 16–18 h, three experiments): 8 µg/mL
MIC [11]: >48.6 µM
time to completely kill A. veronii ACCC61732 [12]: 6 h
MIC [13]: 4 µg/mL (≈ 1.52 µM)
increase of MIC after 30 serial passages [14]: three-fold
MIC [15]: 6.08 µM
MIC ([15]; A. veronii CL0901, broth dilution, 37 °C, 16–18 h, three experiments): 16 µg/mL
MIC ([16]; NCTC10350): 24.32 µM
MIC ([16]; S. hyicus NCTC10350, broth dilution, 37 °C, 16–18 h, three experiments): 64 µg/mL
bacteria in biofilm killed [17]; 8: 46.26%
bacteria in biofilm killed [17]; 16: 54.31%
MICa, MIC of the peptide used alone [18]: 8 µg/mL
interaction with polymyxin B (PMB) ([18]; checkerboard, by FICI): synergic effect
